Measurements: patent US11167007B2, “FOXM1 modulators and uses thereof” (City of Hope, priority 2016, dated 2021)

How the values were obtained:
Format in all cases: cell-based, murine
FOXM1 = test: Western blot of FOXM1 levels in GT1-7 CARY cells; conditions: relative to p84 loading control, FIG. 3C
Description: Western Blot. Cell lysates was separated on a 6% SDS page gel and transferred to a nitrocellulose membrane. The membrane was blocked for one hour in 5% skim milk dissolved in TBS-T and probed with the following antibodies ([…]): FoxM1 (rabbit, GeneTex), AR: 441 (mouse, Santa Cruz Biotechnology), β-catenin (rabbit 9562, Cell Signaling Technology), p84 (mouse, GeneTex) and actin (mouse, Santa Cruz Biotechnology). Horse radish peroxidase linked secondary antibodies were used along with ECL reagents for visualization. Western blots were quantified using Quantity One analysis software (BioRad).
It has been previously reported that thiostrepton causes decreased levels of FOXM1. Hegde et al, Nat Chem, 3(9):725-31 (2011); Gartel, Front Oncol, 3:150 (2013). […] The nuclear association between FOXM1 and β-catenin increases the transcriptional activity of both factors. Zhang et al, Cancer Cell, 20(4):427-42 (2011). β-catenin is a key AR coactivator in a variety of cells. Yang, J Biol Chem, 277(13):11336-44 (2002); Truica et al, Cancer Res, 60(17):4709-13 (2000). The inventors believed that thiostrepton could inhibit AR activity by limiting access to nuclear β-catenin via FOXM1 depletion. […] As expected, control actin protein was observed primarily in cytoplasmic fraction.

AR [1] = test: Androgen-responsive luciferase reporter assay in C2C12 cells; conditions: treated overnight, FIG. 2A
Description: Luciferase Reporter Assay. Cells were transfected using Lipofectamine Plus (Invitrogen) with a normalization plasmid (pRL-SV40, Promega) and an androgen responsive plasmid (MMTV-luciferase or PSA-luciferase) as described in Jones et al, ACS Chem Biol, 3(7):412-8 (2008), and, where indicated, with an shRNA plasmid targeting FOXM1 (adapted for mouse FOXM1 sequence targeting) a scrambled control shRNA plasmid, or ARQ24 or ARQ65 plasmids. Christensen et al, PLoS One, 8(1):e54556 (2013). The following day, cells and drugs were distributed to 96-well plates. 24 hours later, luciferase activity was assessed by a dual luciferase assay kit (Promega) on the Tecan plate reader. Samples were run in quadruplicates and a Student's t test was performed to determine significance, where p<0.05 was considered significant.
In order to identify potential cell-type selective AR modulators, the FRET-based assay of AR conformation change was utilized. AR signaling is a complex process involving many steps in addition to ligand binding. One crucial step is the ligand-induced conformational change of AR, which brings the carboxy (C)- and amino (N)-termini of the receptor together. Full length AR with cyan fluorescent protein (CFP) or yellow fluorescent protein (YFP) fused to either end (CARY) produces a FRET signal upon AR conformation change (FIG. 1A). This produces an accurate and quantifiable read-out of AR activity. Jones et al, ACS Chem Biol, 3(7):412-8 (2008). Because the interest was in the potential of neuron selective AR inhibitors for treatment of SBMA, the initial screen was carried out in CARY-transfected GT1-7 cells, which are a mouse model of hypothalamic neurons. Liposits et al, Endocrinology, 129(3):1575-83 (1991). Cells were plated in 96 wells and treated with library compounds 24 hours prior to accessing conformational changes by FRET. […] Candidate hits were then further evaluated by dose response. […] In addition to FRET, AR transcriptional activity was also assessed in several cell lines by transfecting cells with a luciferase reporter driven by the human PSA promoter. […]

AR [2] = test: Androgen-responsive luciferase reporter assay in GT1-7 cells; conditions: GT1-7 cells, treated overnight, FIG. 2A
Procedure: Luciferase Reporter Assay. […] The following day, cells and drugs were distributed to 96-well plates. 24 hours later, luciferase activity was assessed by a dual luciferase assay kit (Promega) on the Tecan plate reader. Samples were run in quadruplicates and a Student's t test was performed to determine significance, where p<0.05 was considered significant.
In order to identify potential cell-type selective AR modulators, the FRET-based assay of AR conformation change was utilized. AR signaling is a complex process involving many steps in addition to ligand binding. One crucial step is the ligand-induced conformational change of AR, which brings the carboxy (C)- and amino (N)-termini of the receptor together. Full length AR with cyan fluorescent protein (CFP) or yellow fluorescent protein (YFP) fused to either end (CARY) produces a FRET signal upon AR conformation change (FIG. 1A). This produces an accurate and quantifiable read-out of AR activity. […] Cells were plated in 96 wells and treated with library compounds 24 hours prior to accessing conformational changes by FRET. […] Candidate hits were then further evaluated by dose response. […] In addition to FRET, AR transcriptional activity was also assessed in several cell lines by transfecting cells with a luciferase reporter driven by the human PSA promoter.

Compound | FOXM1 levels (Western blot) (FOXM1) | inhibition of AR transcriptional activity (luciferase) (AR [1]) | inhibition of AR transcriptional activity (luciferase) (AR [2])
C[C@]12CCC(=O)C[C@@H]1CC[C@@H]1[C@@H]2CC[C@]2(C)[C@@H](O)CC[C@@H]12 [DHT, dihydrotestosterone] | increased | – | –
Nc1c(C(=O)Nc2ccc(F)cc2)sc2nc(-c3cccs3)cc(C(F)(F)F)c12 [FDI-6] | – | not C2C12 cells | inhibited AR activity
